Experimental data: patent US8748415B2 (priority 2011, dated 2014)
pEC50: −log10 of the molar value.

Tested on: recombinant NL4-3 virus (Renilla luciferase in nef, Gag P373S)
Test: HIV cell culture assay (luciferase activity in MT-2 cells infected with NLRluc recombinant virus)
Type: cell-based
Conditions: NL43, MT-2 cells infected 4-5 days with NLRluc recombinant virus
Description: HIV cell culture assay—MT-2 cells and 293T cells were obtained from the NIH AIDS Research and Reference Reagent Program. MT-2 cells were propagated in RPMI 1640 media supplemented with 10% heat inactivated fetal bovine serum, […]. The 293T cells were propagated in DMEM media supplemented with 10% heat inactivated fetal bovine serum (FBS), 100 units/ml penicillin G and 100 μg/ml streptomycin. The proviral DNA clone of NL4-3 was obtained from the NIH AIDS Research and Reference Reagent Program. A recombinant NL4-3 virus, in which a section of the nef gene from NL4-3 was replaced with the Renilla luciferase gene, was used as a reference virus. In addition, residue Gag P373 was converted to P373S. Briefly, the recombinant virus was prepared by transfection of the altered proviral clone of NL4-3. Transfections were performed in 293T cells using LipofectAMINE PLUS from Invitrogen (Carlsbad, Calif.), according to manufacturer's instruction. The virus was titered in MT-2 cells using luciferase enzyme activity as a marker. Luciferase was quantitated using the Dual Luciferase kit from Promega (Madison, Wis.), with modifications to the manufacturer's protocol. The diluted Passive Lysis solution was pre-mixed with the re-suspended Luciferase Assay Reagent and the re-suspended Stop & Glo Substrate (2:1:1 ratio). Fifty (50) μL of the mixture was added to each aspirated well on assay plates and luciferase activity was measured immediately on a Wallac TriLux (Perkin-Elmer). Antiviral activities of inhibitors toward the recombinant virus were quantified by measuring luciferase activity in cells infected for 4-5 days with NLRluc recombinants in the presence serial dilutions of the inhibitor. Table 1 is the key for the data in Table 2.

SMILES	pEC50 (class symbol)	pEC50 (numeric value)
C=C(C)[C@@H]1CC[C@]2(CNCCCN3CCCCC3)CC[C@]3(C)[C@H](CC[C@@H]4[C@@]5(C)CC=C(c6ccc(C(=O)O)cc6)C(C)(C)[C@@H]5CC[C@]43C)[C@@H]12 [Example 72, 4-((1R,3aS,5aR,5bR,7aR,11aS,11bR,13aR,13bR)-5a,5b,8,8,11a-pentamethyl-3a-((3-(piperidin-1-yl)propylamino)methyl)-1-(prop-1-en-2-yl)-2,3,3a,4,5,5a,5b,6,7,7a,8,11,11a,11b,12,13,13a,13b-octadecahydro-1H-cyclopenta[a]chrysen-9-yl)benzoic acid]	> 7.00	–
C=C(C)[C@@H]1CC[C@]2(CNC(=O)NCC(=O)OC)CC[C@]3(C)[C@H](CC[C@@H]4[C@@]5(C)CC=C(c6ccc(C(=O)O)cc6)C(C)(C)[C@@H]5CC[C@]43C)[C@@H]12 [Example 158, 4-((1R,3aS,5aR,5bR,7aR,11aS,11bR,13aR,13bR)-3a-((3-(2-methoxy-2-oxoethyl)ureido)methyl)-5a,5b,8,8,11a-pentamethyl-1-(prop-1-en-2-yl)-2,3,3a,4,5,5a,5b,6,7,7a,8,11,11a,11b,12,13,13a,13b-octadecahydro-1H-cyclopenta[a]chrysen-9-yl)benzoic acid]	> 7.00	–
C=C(C)[C@@H]1CC[C@]2(CNCC(=O)N3CCC(C(=O)O)CC3)CC[C@]3(C)[C@H](CC[C@@H]4[C@@]5(C)CC=C(c6ccc(C(=O)O)cc6)C(C)(C)[C@@H]5CC[C@]43C)[C@@H]12 [Example 112, 1-(2-(((1R,3aS,5aR,5bR,7aR,11aS,11bR,13aR,13bR)-9-(4-carboxyphenyl)-5a,5b,8,8,11a-pentamethyl-1-(prop-1-en-2-yl)-2,3,3a,4,5,5a,5b,6,7,7a,8,11,11a,11b,12,13,13a,13b-octadecahydro-1H-cyclopenta[a]chrysen-3a-yl)methylamino)acetyl)piperidine-4-carboxylic acid]	> 7.00	–
C=C(C)[C@@H]1CC[C@]2(CNC(=O)NCCCN3CCCC3=O)CC[C@]3(C)[C@H](CC[C@@H]4[C@@]5(C)CC=C(c6ccc(C(=O)O)cc6)C(C)(C)[C@@H]5CC[C@]43C)[C@@H]12 [Example 155, 4-((1R,3aS,5aR,5bR,7aR,11aS,11bR,13aR,13bR)-5a,5b,8,8,11a-pentamethyl-3a-((3-(3-(2-oxopyrrolidin-1-yl)propyl)ureido)methyl)-1-(prop-1-en-2-yl)-2,3,3a,4,5,5a,5b,6,7,7a,8,11,11a,11b,12,13,13a,13b-octadecahydro-1H-cyclopenta[a]chrysen-9-yl)benzoic acid]	> 7.00	–
C=C(C)[C@@H]1CC[C@]2(CNCCN(C(C)C)C(C)C)CC[C@]3(C)[C@H](CC[C@@H]4[C@@]5(C)CC=C(c6ccc(C(=O)O)cc6)C(C)(C)[C@@H]5CC[C@]43C)[C@@H]12 [Example 57, 4-((1R,3aS,5aR,5bR,7aR,11aS,11bR,13aR,13bR)-3a-((2-(diisopropylamino)ethylamino)methyl)-5a,5b,8,8,11a-pentamethyl-1-(prop-1-en-2-yl)-2,3,3a,4,5,5a,5b,6,7,7a,8,11,11a,11b,12,13,13a,13b-octadecahydro-1H-cyclopenta[a]chrysen-9-yl)benzoic acid]	> 7.00	–
C=C(C)[C@@H]1CC[C@]2(CNC(=O)[C@@H](N)Cc3c[nH]cn3)CC[C@]3(C)[C@H](CC[C@@H]4[C@@]5(C)CC=C(c6ccc(C(=O)O)cc6)C(C)(C)[C@@H]5CC[C@]43C)[C@@H]12 [Example 140, 4-((1R,3aS,5aR,5bR,7aR,11aS,11bR,13aR,13bR)-3a-(((S)-2-amino-3-(1H-imidazol-4-yl)propanamido)methyl)-5a,5b,8,8,11a-pentamethyl-1-(prop-1-en-2-yl)-2,3,3a,4,5,5a,5b,6,7,7a,8,11,11a,11b,12,13,13a,13b-octadecahydro-1H-cyclopenta[a]chrysen-9-yl)benzoic acid]	> 7.00	–
C=C(C)[C@@H]1CC[C@]2(CNCCN3CCC(CO)CC3)CC[C@]3(C)[C@H](CC[C@@H]4[C@@]5(C)CC=C(c6ccc(C(=O)O)cc6)C(C)(C)[C@@H]5CC[C@]43C)[C@@H]12 [Example 181, 4-((1R,3aS,5aR,5bR,7aR,11aS,11bR,13aR,13bR)-3a-((2-(4-(hydroxymethyl)piperidin-1-yl)ethylamino)methyl)-5a,5b,8,8,11a-pentamethyl-1-(prop-1-en-2-yl)-2,3,3a,4,5,5a,5b,6,7,7a,8,11,11a,11b,12,13,13a,13b-octadecahydro-1H-cyclopenta[a]chrysen-9-yl)benzoic acid]	–	9.00
C=C(C)[C@@H]1CC[C@]2(CN(CCN(C)C)C(=O)CCC(=O)O)CC[C@]3(C)[C@H](CC[C@@H]4[C@@]5(C)CC=C(c6ccc(C(=O)O)cc6)C(C)(C)[C@@H]5CC[C@]43C)[C@@H]12 [Example 13, 4-((1R,3aS,5aR,5bR,7aR,11aS,11bR,13aR,13bR)-3a-((3-carboxy-N-(2-(dimethylamino)ethyl)propanamido)methyl)-5a,5b,8,8,11a-pentamethyl-1-(prop-1-en-2-yl)-2,3,3a,4,5,5a,5b,6,7,7a,8,11,11a,11b,12,13,13a,13b-octadecahydro-1H-cyclopenta[a]chrysen-9-yl)benzoic acid]	> 7.00	–
C=C(C)[C@@H]1CC[C@]2(CN[C@@H](CC(=O)O)C(=O)N3CCS(=O)(=O)CC3)CC[C@]3(C)[C@H](CC[C@@H]4[C@@]5(C)CC=C(c6ccc(C(=O)O)cc6)C(C)(C)[C@@H]5CC[C@]43C)[C@@H]12 [Example 132, 4-thiomorpholinebutanoic acid, 4-((1R,3aS,5aR,5bR,7aR,11aS,11bR,13aR,13bR)-3a-((((1S)-1-(carboxymethyl)-2-(1,1-dioxido-4-thiomorpholinyl)-2-oxoethyl)amino)methyl)-1-isopropenyl-5a,5b,8,8,11a-pentamethyl-2,3,3a,4,5,5a,5b,6,7,7a,8,11,11a,11b,12,13,13a,13b-octadecahydro-1H-cyclopenta[a]chrysen-9-yl)benzoic acid]	> 7.00	–
C=C(C)[C@@H]1CC[C@]2(CNCCCN3CCS(=O)(=O)CC3)CC[C@]3(C)[C@H](CC[C@@H]4[C@@]5(C)CC=C(c6ccc(C(=O)NS(=O)(=O)N(C)C)cc6)C(C)(C)[C@@H]5CC[C@]43C)[C@@H]12 [Example 171, N-(dimethylsulfamoyl)-4-((1R,3aS,5aR,5bR,7aR,11aS,11bR,13aR,13bR)-3a-(((3-(1,1-dioxido-4-thiomorpholinyl)propyl)amino)methyl)-1-isopropenyl-5a,5b,8,8,11a-pentamethyl-2,3,3a,4,5,5a,5b,6,7,7a,8,11,11a,11b,12,13,13a,13b-octadecahydro-1H-cyclopenta[a]chrysen-9-yl)benzamide]	> 7.00	–
C=C(C)[C@@H]1CC[C@]2(CNCCn3ccnc3)CC[C@]3(C)[C@H](CC[C@@H]4[C@@]5(C)CC=C(c6ccc(C(=O)O)cc6)C(C)(C)[C@@H]5CC[C@]43C)[C@@H]12 [Example 20, 4-((1R,3aS,5aR,5bR,7aR,11aS,11bR,13aR,13bR)-3a-((2-(1H-imidazol-1-yl)ethylamino)methyl)-5a,5b,8,8,11a-pentamethyl-1-(prop-1-en-2-yl)-2,3,3a,4,5,5a,5b,6,7,7a,8,11,11a,11b,12,13,13a,13b-octadecahydro-1H-cyclopenta[a]chrysen-9-yl)benzoic acid]	> 7.00	–
